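Where inhibition never reached the appropriate level, the endpoint shown equals the highest concentration tested. Otherwise, values were interpolated linearly from a five-concentration, 48-hour dose response in 96-well plates. Here, GI50 denotes the concentration required for 50% inhibition of growth.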 Activity calls are given as the source filed them. Rule as the data show it: active = GI50 up to about 1.1 µM and inactive = higher.
Tests used:
Assay in all cases: NCI anticancer screen, dose series, 48 h
786-0 = test system: 786-0
HT-29 = test system: HT-29
T47D = test system: T47D
MCF7 = test system: MCF7
NCI-H226 = test system: NCI-H226
SF-295 = test system: SF-295
OVCAR-5 = test system: OVCAR-5
U-251 = test system: U-251
KM12 = test system: KM12
IGROV-1 = test system: IGROV-1
MOLT-4 = test system: MOLT-4
SW-620 = test system: SW-620
UACC-257 = test system: UACC-257
A549 = test system: A549
UO-31 = test system: UO-31
SR = test system: SR
M14 = test system: M14
SK-MEL-2 = test system: SK-MEL-2
ACHN = test system: ACHN
MDA-MB-231 = test system: MDA-MB-231

Structure (SMILES): N#C/C(C(=O)Nc1ccccc1)=C(/N)N1CCCCC1
- GI50 (786-0): > 100 µM (inactive)
- GI50 (HT-29): > 100 µM (inactive)
- GI50 (T47D): > 100 µM (inactive)
- GI50 (MCF7): > 100 µM (inactive)
- GI50 (NCI-H226): > 100 µM (inactive)
- GI50 (SF-295): > 100 µM (inactive)
- GI50 (OVCAR-5): > 100 µM (inactive)
- GI50 (U-251): > 100 µM (inactive)
- GI50 (KM12): > 100 µM (inactive)
- GI50 (IGROV-1): 91 µM (inactive)
- GI50 (MOLT-4): > 100 µM (inactive)
- GI50 (SW-620): > 100 µM (inactive)
- GI50 (UACC-257): > 100 µM (inactive)
- GI50 (A549): > 100 µM (inactive)
- GI50 (UO-31): 67.3 µM (inactive)
- GI50 (SR): > 100 µM (inactive)
- GI50 (M14): 91 µM (inactive)
- GI50 (SK-MEL-2): > 100 µM (inactive)
- GI50 (ACHN): > 100 µM (inactive)

Structure (SMILES): O=c1c2ccccc2n2c(-c3ccc(O)cc3)nnc2n1-c1ccccc1
- GI50 (786-0): 17.9 µM (inactive)
- GI50 (HT-29): 22.1 µM (inactive)
- GI50 (T47D): 13.4 µM (inactive)
- GI50 (NCI-H226): 27 µM (inactive)
- GI50 (SF-295): 15.6 µM (inactive)
- GI50 (OVCAR-5): 96.6 µM (inactive)
- GI50 (U-251): 17.2 µM (inactive)
- GI50 (KM12): 49.2 µM (inactive)
- GI50 (IGROV-1): 18.1 µM (inactive)
- GI50 (MOLT-4): 36.1 µM (inactive)
- GI50 (SW-620): 13.5 µM (inactive)
- GI50 (UACC-257): 21.5 µM (inactive)
- GI50 (A549): 20.5 µM (inactive)
- GI50 (UO-31): 3.72 µM (inactive)
- GI50 (MDA-MB-231): 17.1 µM (inactive)
- GI50 (SR): 21.3 µM (inactive)
- GI50 (M14): 18.2 µM (inactive)
- GI50 (SK-MEL-2): 20.7 µM (inactive)
- GI50 (ACHN): 16.1 µM (inactive)

Structure (SMILES): COc1ccc(C)cc1NC(=S)N/N=C/c1ccco1
- GI50 (786-0): 38 µM (inactive)
- GI50 (HT-29): 29 µM (inactive)
- GI50 (T47D): 25.4 µM (inactive)
- GI50 (MCF7): 4.94 µM (inactive)
- GI50 (NCI-H226): 25.9 µM (inactive)
- GI50 (SF-295): 40.2 µM (inactive)
- GI50 (OVCAR-5): > 100 µM (inactive)
- GI50 (KM12): 18.9 µM (inactive)
- GI50 (IGROV-1): 35.8 µM (inactive)
- GI50 (MOLT-4): 31.7 µM (inactive)
- GI50 (SW-620): 36.5 µM (inactive)
- GI50 (UACC-257): 30.9 µM (inactive)
- GI50 (A549): 48.4 µM (inactive)
- GI50 (UO-31): 79.3 µM (inactive)
- GI50 (SR): 11.3 µM (inactive)
- GI50 (M14): 34.6 µM (inactive)
- GI50 (SK-MEL-2): 16.6 µM (inactive)
- GI50 (ACHN): > 100 µM (inactive)

Structure (SMILES): COc1ccc2[nH]c3ccc4cc[n+](CCN5CCC(C6CCN(CC[n+]7ccc8ccc9[nH]c%10ccc(OC)cc%10c9c8c7)CC6)CC5)cc4c3c2c1
- GI50 (786-0): 0.249 µM (active)
- GI50 (HT-29): 0.333 µM (active)
- GI50 (T47D): 20.4 µM (inactive)
- GI50 (NCI-H226): 29.4 µM (inactive)
- GI50 (SF-295): 1.64 µM (inactive)
- GI50 (OVCAR-5): > 76 µM (inactive)
- GI50 (U-251): 4.67 µM (inactive)
- GI50 (KM12): 0.818 µM (active)
- GI50 (IGROV-1): 0.352 µM (active)
- GI50 (MOLT-4): 0.346 µM (active)
- GI50 (SW-620): 0.316 µM (active)
- GI50 (UACC-257): 35.2 µM (inactive)
- GI50 (A549): 0.409 µM (active)
- GI50 (UO-31): > 100 µM (inactive)
- GI50 (MDA-MB-231): 8.04 µM (inactive)
- GI50 (SR): 0.117 µM (active)
- GI50 (M14): > 50 µM (inactive)
- GI50 (SK-MEL-2): > 52.7 µM (inactive)
- GI50 (ACHN): 0.18 µM (active)

Structure (SMILES): CC1CC/C(=C\c2ccc(F)cc2)C2=C1C(c1ccc(F)cc1)N1C(=O)CSC1=N2 (stereo unspecified)
- GI50 (786-0): > 100 µM (inactive)
- GI50 (HT-29): 23.2 µM (inactive)
- GI50 (T47D): 45.1 µM (inactive)
- GI50 (MCF7): 55.1 µM (inactive)
- GI50 (NCI-H226): 53 µM (inactive)
- GI50 (SF-295): 45.6 µM (inactive)
- GI50 (U-251): 93.3 µM (inactive)
- GI50 (KM12): 35.7 µM (inactive)
- GI50 (IGROV-1): 9.23 µM (inactive)
- GI50 (MOLT-4): 6.55 µM (inactive)
- GI50 (SW-620): > 100 µM (inactive)
- GI50 (UACC-257): 62.1 µM (inactive)
- GI50 (UO-31): 87.9 µM (inactive)
- GI50 (MDA-MB-231): > 100 µM (inactive)
- GI50 (M14): > 100 µM (inactive)
- GI50 (SK-MEL-2): > 100 µM (inactive)
- GI50 (ACHN): > 100 µM (inactive)

Structure (SMILES): CCNC12CCC(C1)C(C)(C)C2=O (stereo unspecified)
- GI50 (786-0): > 100 µM (inactive)
- GI50 (T47D): > 100 µM (inactive)
- GI50 (MCF7): > 100 µM (inactive)
- GI50 (NCI-H226): > 100 µM (inactive)
- GI50 (SF-295): > 100 µM (inactive)
- GI50 (OVCAR-5): > 100 µM (inactive)
- GI50 (U-251): > 100 µM (inactive)
- GI50 (KM12): > 100 µM (inactive)
- GI50 (IGROV-1): > 100 µM (inactive)
- GI50 (MOLT-4): > 100 µM (inactive)
- GI50 (SW-620): > 100 µM (inactive)
- GI50 (UACC-257): > 100 µM (inactive)
- GI50 (A549): > 100 µM (inactive)
- GI50 (UO-31): > 100 µM (inactive)
- GI50 (SR): > 100 µM (inactive)
- GI50 (M14): > 100 µM (inactive)
- GI50 (SK-MEL-2): > 100 µM (inactive)
- GI50 (ACHN): > 100 µM (inactive)

Structure (SMILES): O=C(NNC(=O)c1c(Cl)c(Cl)c(Cl)c(Cl)c1-c1nc2ccccc2[nH]1)c1ccc(Cl)cc1
- GI50 (786-0): 51.8 µM (inactive)
- GI50 (HT-29): 58.6 µM (inactive)
- GI50 (T47D): 21.7 µM (inactive)
- GI50 (MCF7): 34.9 µM (inactive)
- GI50 (NCI-H226): 43.4 µM (inactive)
- GI50 (SF-295): 44.5 µM (inactive)
- GI50 (OVCAR-5): > 100 µM (inactive)
- GI50 (KM12): 38.1 µM (inactive)
- GI50 (IGROV-1): 17.5 µM (inactive)
- GI50 (MOLT-4): 38.9 µM (inactive)
- GI50 (SW-620): 50.7 µM (inactive)
- GI50 (A549): 45 µM (inactive)
- GI50 (UO-31): 30.3 µM (inactive)
- GI50 (SR): 33.8 µM (inactive)
- GI50 (M14): 35.5 µM (inactive)
- GI50 (SK-MEL-2): 37.9 µM (inactive)
- GI50 (ACHN): 46.9 µM (inactive)

Structure (SMILES): Cc1cc(C)nc(SCCc2cccc[n+]2C)n1
- GI50 (786-0): > 100 µM (inactive)
- GI50 (HT-29): > 100 µM (inactive)
- GI50 (T47D): > 100 µM (inactive)
- GI50 (MCF7): > 100 µM (inactive)
- GI50 (NCI-H226): > 100 µM (inactive)
- GI50 (SF-295): > 100 µM (inactive)
- GI50 (OVCAR-5): 36.1 µM (inactive)
- GI50 (U-251): > 100 µM (inactive)
- GI50 (KM12): > 100 µM (inactive)
- GI50 (IGROV-1): > 100 µM (inactive)
- GI50 (MOLT-4): > 100 µM (inactive)
- GI50 (SW-620): > 100 µM (inactive)
- GI50 (UACC-257): > 100 µM (inactive)
- GI50 (A549): 34.4 µM (inactive)
- GI50 (UO-31): > 100 µM (inactive)
- GI50 (MDA-MB-231): > 100 µM (inactive)
- GI50 (M14): > 100 µM (inactive)
- GI50 (ACHN): > 100 µM (inactive)

Structure (SMILES): Nc1nc(N)c2c(Cl)c(CNc3ccc(Cl)c(Cl)c3)ccc2n1
- GI50 (786-0): < 0.01 µM (active)
- GI50 (HT-29): < 0.01 µM (active)
- GI50 (T47D): 6.85 µM (inactive)
- GI50 (NCI-H226): 12.9 µM (inactive)
- GI50 (SF-295): < 0.01 µM (active)
- GI50 (OVCAR-5): < 0.01 µM (active)
- GI50 (U-251): < 0.0215 µM (active)
- GI50 (KM12): 0.0238 µM (active)
- GI50 (IGROV-1): < 0.01 µM (active)
- GI50 (MOLT-4): < 0.0536 µM (active)
- GI50 (SW-620): < 0.01 µM (active)
- GI50 (UACC-257): 0.138 µM (active)
- GI50 (A549): < 0.01 µM (active)
- GI50 (UO-31): 0.0294 µM (active)
- GI50 (MDA-MB-231): 1.52 µM (inactive)
- GI50 (SR): < 0.0371 µM (active)
- GI50 (M14): < 0.01 µM (active)
- GI50 (SK-MEL-2): 3.11 µM (inactive)
- GI50 (ACHN): < 0.01 µM (active)

Structure (SMILES): CCNC(=O)NNc1ncnc2c1c(-c1ccc(Cl)cc1)cn2-c1ccc(C)cc1
- GI50 (786-0): 18.6 µM (inactive)
- GI50 (HT-29): 18.3 µM (inactive)
- GI50 (T47D): 14.6 µM (inactive)
- GI50 (NCI-H226): 20 µM (inactive)
- GI50 (SF-295): 15.7 µM (inactive)
- GI50 (OVCAR-5): 18 µM (inactive)
- GI50 (U-251): 17.1 µM (inactive)
- GI50 (KM12): 20.1 µM (inactive)
- GI50 (IGROV-1): 20.5 µM (inactive)
- GI50 (MOLT-4): 16.4 µM (inactive)
- GI50 (SW-620): 21.2 µM (inactive)
- GI50 (UACC-257): 21.3 µM (inactive)
- GI50 (A549): 17.7 µM (inactive)
- GI50 (UO-31): 14.2 µM (inactive)
- GI50 (MDA-MB-231): 19.6 µM (inactive)
- GI50 (SR): 20.2 µM (inactive)
- GI50 (M14): 17.7 µM (inactive)
- GI50 (SK-MEL-2): 20.4 µM (inactive)
- GI50 (ACHN): 17.7 µM (inactive)

Structure (SMILES): Cc1c(O)nc(-n2[nH]c3c(c2=O)CCCC3)[nH]c1=O
- GI50 (786-0): > 100 µM (inactive)
- GI50 (HT-29): > 100 µM (inactive)
- GI50 (T47D): > 100 µM (inactive)
- GI50 (NCI-H226): > 100 µM (inactive)
- GI50 (SF-295): > 100 µM (inactive)
- GI50 (OVCAR-5): > 100 µM (inactive)
- GI50 (U-251): > 100 µM (inactive)
- GI50 (KM12): > 100 µM (inactive)
- GI50 (IGROV-1): > 100 µM (inactive)
- GI50 (MOLT-4): > 100 µM (inactive)
- GI50 (SW-620): > 100 µM (inactive)
- GI50 (UACC-257): > 100 µM (inactive)
- GI50 (UO-31): > 100 µM (inactive)
- GI50 (MDA-MB-231): > 100 µM (inactive)
- GI50 (SR): > 100 µM (inactive)
- GI50 (M14): > 100 µM (inactive)
- GI50 (SK-MEL-2): > 100 µM (inactive)
- GI50 (ACHN): > 100 µM (inactive)

Reference: ChEMBL document CHEMBL1201862, “PubChem BioAssay data set” (2004)
